# Like-named read-outs stand apart in the source and are kept apart here.
# Experiments:
# Zymoseptoria tritici = test: Fungicidal activity: leaf blotch of wheat (SEPTTR), disease control on wheat seedlings; assay type: in vivo, Zymoseptoria tritici on wheat plants (variety Yuma); conditions: for pest or weed control at 100 ppm: high volume application; for pest or weed control at 121.5 g/ha: low volume application, 121.5 g/H
# Procedure: Evaluation of Fungicidal Activity: Leaf Blotch of Wheat (Zymoseptoria Tritici; Bayer Code […]) Technical grades of materials were dissolved in acetone, which were then mixed with nine volumes of water (H2O) containing 110 ppm Triton X-100. The fungicide solutions were applied onto wheat seedlings using an automated booth sprayer to run-off. All sprayed plants were allowed to air dry prior to further handling. All fungicides were evaluated using the aforementioned method for their activity vs. all target diseases, unless stated otherwise. Wheat leaf blotch and brown rust activity were also evaluated using track spray applications, in which case the fungicides were formulated as EC formulations, containing 0.1% Trycol 5941 in the spray solutions. Wheat plants (variety Yuma) were grown from seed in a greenhouse in 50% mineral soil/50% soil-less Metro mix until the first leaf was fully emerged, with 7-10 seedlings per pot. These plants were inoculated with an aqueous spore suspension of Zymoseptoria tritici either prior to or after fungicide treatments. After inoculation the plants were kept in 100% relative humidity (one day in a dark dew chamber followed by two to three days in a lighted dew chamber at 20° C.) to permit spores to germinate and infect the leaf. The plants were then transferred to a greenhouse set at 20° C. for disease to develop. When disease symptoms were fully expressed on the 1st leaves of untreated plants, infection levels were assessed on a scale of 0 to 100 percent disease severity. Percent disease control was calculated using the ratio of disease severity on treated plants relative to untreated plants.
# Puccinia triticina = test: Fungicidal activity: wheat brown rust (PUCCRT), disease control on wheat seedlings; assay type: in vivo, Puccinia triticina on wheat plants (variety Yuma); conditions: for pest or weed control at 100 ppm: high volume application; for pest or weed control at 121.5 g/ha: low volume application, 121.5 g/H
# Procedure: Technical grades of materials were dissolved in acetone, which were then mixed with nine volumes of water (H2O) containing 110 ppm Triton X-100. The fungicide solutions were applied onto wheat seedlings using an automated booth sprayer to run-off. All sprayed plants were allowed to air dry prior to further handling. All fungicides were evaluated using the aforementioned method for their activity vs. all target diseases, unless stated otherwise. Wheat leaf blotch and brown rust activity were also evaluated using track spray applications, in which case the fungicides were formulated as EC formulations, containing 0.1% Trycol 5941 in the spray solutions. Evaluation of Fungicidal Activity: Wheat Brown Rust (Puccinia triticina; Synonym: Puccinia recondita f. Sp. Tritici; Bayer Code PUCCRT) Wheat plants (variety Yuma) were grown from seed in a greenhouse in 50% mineral soil/50% soil-less Metro mix until the first leaf was fully emerged, with 7-10 seedlings per pot. These plants were inoculated with an aqueous spore suspension of Puccinia triticina either prior to or after fungicide treatments. After inoculation the plants were kept in a dark dew room at 22° C. with 100% relative humidity overnight to permit spores to germinate and infect the leaf. The plants were then transferred to a greenhouse set at 24° C. for disease to develop. Fungicide formulation, application and disease assessment followed the procedures as described in the Example A. The results of the evalution are shown below in Table 4.
# [1] = 24 h, 1 day protectant, read-out: SEPTTR 1DP disease control, HV activity at 100 ppm
# [2] = 72 h, 3 day curative, read-out: SEPTTR 3DC disease control, HV activity at 100 ppm
# [3] = 24 h, 1 day protectant, read-out: PUCCRT 1DP disease control, HV activity at 100 ppm
# [4] = 72 h, 3 day curative, read-out: PUCCRT 3DC disease control, HV activity at 100 ppm
# [5] = 24 h, 1 day protectant, read-out: SEPTTR 1DP disease control, LV activity at 121.5 g/H
# [6] = 72 h, 3 day curative, read-out: SEPTTR 3DC disease control, LV activity at 121.5 g/H
# [7] = 24 h, 1 day protectant, read-out: PUCCRT 1DP disease control, LV activity at 121.5 g/H
# [8] = 72 h, 3 day curative, read-out: PUCCRT 3DC disease control, LV activity at 121.5 g/H
Structure (SMILES),pest or weed control at 100 ppm (Zymoseptoria tritici; [1]) [%],pest or weed control at 100 ppm (Zymoseptoria tritici; [2]) [%],pest or weed control at 100 ppm (Puccinia triticina; [3]) [%],pest or weed control at 100 ppm (Puccinia triticina; [4]) [%],pest or weed control at 121.5 g/ha (Zymoseptoria tritici; [5]) [%],pest or weed control at 121.5 g/ha (Zymoseptoria tritici; [6]) [%],pest or weed control at 121.5 g/ha (Puccinia triticina; [7]) [%],pest or weed control at 121.5 g/ha (Puccinia triticina; [8]) [%]
C=CC[C@@H](Oc1ccccc1)[C@H](C)OC(=O)[C@H](C)NC(=S)c1nccc(OC)c1O [Compound 16],> 80,≤ 80,> 80,> 80,,,,
COc1ccnc(C(=S)N[C@@H](C)C(=O)O[C@@H](C)[C@H](Oc2ccc(Cl)cc2)C(C)C)c1O [Compound 17],≤ 80,,> 80,,,,,
COc1cc(F)ccc1[C@H](c1ccc(C)cc1)[C@H](C)OC(=O)[C@H](C)NC(=S)c1nccc(OC)c1O [Compound 18],> 80,> 80,> 80,> 80,,,,
COc1ccnc(C(=S)N[C@@H](C)C(=O)O[C@H](C(C)C)[C@H](C)Oc2ccccc2)c1O [Compound 19],> 80,,> 80,> 80,,,,
COc1ccnc(C(=S)N[C@@H](C)C(=O)O[C@@H](C)C(c2ccc(C)cc2)c2ccc(C)cc2)c1O [Compound 20],> 80,> 80,> 80,≤ 80,,,,
"COc1ccnc(C(=S)N[C@@H](C)C(=O)O[C@@H](C)[C@H](Oc2ccccc2Cl)c2ccccc2)c1O [Compound 22, (1R,2S)-1-(2-chlorophenoxy)-1-phenylpropan-2-yl (3-hydroxy-4-methoxypyridine-2-carbonothioyl)-L-alaninate]",> 80,≤ 80,> 80,≤ 80,,,,
COc1ccnc(C(=S)N[C@@H](C)C(=O)O[C@@H](C)C(c2ccc(F)cc2)c2ccc(F)cc2)c1O [Compound 39],> 80,> 80,≤ 80,≤ 80,,,,
CCCCC[C@@H](OC(=O)[C@H](C)NC(=S)c1nccc(OC)c1CC(C)=O)[C@H](C)Oc1ccccc1 [Compound 41],,,,,> 80,> 80,> 80,> 80
CCCCC[C@H](OC(=O)[C@H](C)NC(=S)c1nccc(OC)c1OC(C)=O)[C@@H](C)Oc1ccccc1 [Compound 42],,,,,≤ 80,,≤ 80,≤ 80
COc1ccnc(C(=S)N[C@@H](C)C(=O)O[C@@H](C)[C@H](Oc2ccc(Cl)cc2)C(C)C)c1OC(C)=O [Compound 43],,,,,> 80,≤ 80,> 80,> 80
COc1cc(F)ccc1[C@H](c1ccccc1)[C@H](C)OC(=O)[C@H](C)NC(=S)c1nccc(OC)c1OC(C)=O [Compound 44],,,,,> 80,> 80,> 80,≤ 80
COc1cc(F)ccc1[C@H](c1ccc(C)cc1)[C@H](C)OC(=O)[C@H](C)NC(=S)c1nccc(OC)c1OC(C)=O [Compound 45],,,,,> 80,> 80,> 80,> 80
COc1ccnc(C(=S)N[C@@H](C)C(=O)O[C@@H](C)[C@@H](c2ccc(C)cc2)c2ccc(F)cc2C)c1OC(C)=O [Compound 46],,,,,> 80,> 80,> 80,> 80
COc1ccnc(C(=S)N[C@@H](C)C(=O)O[C@@H](C)C(c2ccc(Cl)cc2)c2ccc(Cl)cc2)c1OC(C)=O [Compound 47],,,,,> 80,> 80,> 80,≤ 80
COc1ccnc(C(=S)N[C@@H](C)C(=O)O[C@@H](C)C(c2ccc(C)cc2C)c2ccc(C)cc2C)c1OC(C)=O [Compound 48],,,,,> 80,> 80,> 80,
COc1ccnc(C(=S)N[C@@H](C)C(=O)O[C@@H](C)[C@H](Oc2ccc(Cl)cc2Cl)c2ccccc2)c1OC(C)=O [Compound 49],,,,,≤ 80,,≤ 80,
COc1ccnc(C(=S)N[C@@H](C)C(=O)O[C@@H](C)C(c2ccc(C)cc2)c2ccc(C)cc2)c1OC(C)=O [Compound 50],,,,,> 80,> 80,> 80,> 80
COc1ccnc(C(=S)N[C@@H](C)C(=O)O[C@@H](C)[C@@H](c2ccccc2)c2ccc(F)cc2)c1OC(C)=O [Compound 51],,,,,> 80,> 80,> 80,≤ 80
COc1cc(Cl)ccc1C(c1ccc(Cl)cc1OC)[C@H](C)OC(=O)[C@H](C)NC(=S)c1nccc(OC)c1OC(C)=O [Compound 52],,,,,> 80,> 80,> 80,≤ 80
COc1ccc(C(c2ccc(OC)cc2F)[C@H](C)OC(=O)[C@H](C)NC(=S)c2nccc(OC)c2OC(C)=O)c(F)c1 [Compound 53],,,,,> 80,> 80,> 80,≤ 80
COc1ccccc1C(c1ccccc1OC)[C@H](C)OC(=O)[C@H](C)NC(=S)c1nccc(OC)c1OC(C)=O [Compound 54],,,,,> 80,> 80,> 80,
COc1ccnc(C(=S)N[C@@H](C)C(=O)O[C@H](C(C)C)[C@H](C)Oc2ccc(C)cc2)c1OC(C)=O [Compound 56],,,,,≤ 80,≤ 80,> 80,> 80
"COc1ccnc(C(=S)N[C@@H](C)C(=O)O[C@@H](C)[C@H](Oc2ccccc2Cl)c2ccccc2)c1OC(C)=O [Compound 57, (1R,2S)-1-(2-chlorophenoxy)-1-phenylpropan-2-yl (3-acetoxy-4-methoxypyridine-2-carbonothioyl)-L-alaninate]",,,,,> 80,> 80,> 80,≤ 80
COc1ccc(O[C@@H](C)[C@H](OC(=O)[C@H](C)NC(=S)c2nccc(OC)c2OC(C)=O)C(C)C)cc1 [Compound 58],,,,,> 80,> 80,> 80,> 80
COc1ccnc(C(=S)N[C@H](C)C(=O)O[C@@H](C)C(c2ccc(F)cc2)c2ccc(F)cc2)c1OC(C)=O [Compound 59],,,,,> 80,,≤ 80,≤ 80
C=CC[C@@H](Oc1ccccc1)[C@H](C)OC(=O)[C@H](C)NC(=S)c1nccc(OC)c1OC(C)=O [Compound 60],,,,,≤ 80,≤ 80,> 80,> 80

# From patent publication US10172358B2, “Thiopicolinamide compounds with fungicidal activity” (Dow AgroSciences LLC, priority 2016, dated 2019)
